Drawing on ChEMBL document CHEMBL1949547, “Computer-assisted rational design, synthesis, and bioassay of non-steroidal anti-inflammatory agents” (2012), this text covers inhibition in vivo for 27 compounds.

Common to all, as to type: functional
What all share (details): route intraperitoneal

In assay [1] the test system is Rattus norvegicus. Nature of the assay: Antiinflammatory activity in Wister albino rat assessed as inhibition of carrageenan-induced paw edema at 50 mg/kg, ip administered 1 hr before carrageenan challenge measured after 24 hrs by plethysmometer relative to control.
Assay [2] concerns Rattus norvegicus. As to the kind of experiment: Antiinflammatory activity in Wister albino rat assessed as inhibition of carrageenan-induced paw edema at 50 mg/kg, ip administered 1 hr before carrageenan challenge measured after 4 hrs by plethysmometer relative to indomethacin.
Assay [3] deals with Rattus norvegicus. Nature of the assay: Antiinflammatory activity in Wister albino rat assessed as inhibition of carrageenan-induced paw edema at 50 mg/kg, ip administered 1 hr before carrageenan challenge measured after 2 hrs by plethysmometer relative to control.
Assay [4] concerns Rattus norvegicus. Nature of the assay: Antiinflammatory activity in Wister albino rat assessed as inhibition of carrageenan-induced paw edema at 50 mg/kg, ip administered 1 hr before carrageenan challenge measured after 1 hr by plethysmometer relative to control.
Assay [5] relates to Rattus norvegicus. Nature of the assay: Antiinflammatory activity in Wister albino rat assessed as inhibition of carrageenan-induced paw edema at 50 mg/kg, ip administered 1 hr before carrageenan challenge measured after 3 hrs by plethysmometer relative to control.
Assay [6] relates to Rattus norvegicus. Nature of the assay: Antiinflammatory activity in Wister albino rat assessed as inhibition of carrageenan-induced paw edema at 50 mg/kg, ip administered 1 hr before carrageenan challenge measured after 4 hrs by plethysmometer relative to control.
In assay [7] the test system is Rattus norvegicus. As to the kind of experiment: Antiinflammatory activity in Wister albino rat assessed as inhibition of carrageenan-induced paw edema at 10 mg/kg, ip administered 1 hr before carrageenan challenge measured after 3 hrs by plethysmometer relative to control.
Assay [8] deals with Rattus norvegicus. As to the kind of experiment: Antiinflammatory activity in Wister albino rat assessed as inhibition of carrageenan-induced paw edema at 10 mg/kg, ip administered 1 hr before carrageenan challenge measured after 24 hrs by plethysmometer relative to control.
The test system of assay [9] is Rattus norvegicus. As to the kind of experiment: Antiinflammatory activity in Wister albino rat assessed as inhibition of carrageenan-induced paw edema at 10 mg/kg, ip administered 1 hr before carrageenan challenge measured after 1 hr by plethysmometer relative to control.
The test system of assay [10] is Rattus norvegicus. Nature of the assay: Antiinflammatory activity in Wister albino rat assessed as inhibition of carrageenan-induced paw edema at 10 mg/kg, ip administered 1 hr before carrageenan challenge measured after 4 hrs by plethysmometer relative to control.
Assay [11] relates to Rattus norvegicus. Nature of the assay: Antiinflammatory activity in Wister albino rat assessed as inhibition of carrageenan-induced paw edema at 10 mg/kg, ip administered 1 hr before carrageenan challenge measured after 2 hrs by plethysmometer relative to control.

For `CCOC(=O)c1c(-c2ccc(Cl)cc2)cc(-c2ccccc2)nc1N1CCCCC1`, the inhibition in vivo at 50 mg/kg in assay [1] stood at 36.4%; in [2], 103%; in [3] it was 29.1%; in assay [4] it was 59.3%; in assay [5], 24%; in assay [6], 70.1%.

Turning to `CCOC(=O)c1c(-c2ccc(Cl)c(Cl)c2)cc(-c2ccccc2)nc1N1CCCCC1`, the inhibition in vivo at 50 mg/kg was determined as 48.9% in [1]; 95.1% in [2]; 67.9% in [3]; 53.5% in assay [4]; 46.3% in assay [5]; 64.7% in assay [6].

As to `CCOC(=O)c1c(-c2ccc(Cl)cc2)cc(-c2ccccc2)nc1N1CCOCC1`, the inhibition in vivo at 50 mg/kg in assay [1] was found to be 61.7%; in assay [2], 120%; in assay [3], 54.5%; in assay [4] it was 59.5%; in assay [5], 69.8%; in assay [6], 81.3%.

Consider `CCOC(=O)c1c(-c2ccc(Cl)c(Cl)c2)cc(-c2ccccc2)nc1N1CCOCC1`, for which the inhibition in vivo at 50 mg/kg came to 61.6% in assay [1]; 96.6% in assay [2]; 74.3% in assay [3]; 63.5% in assay [4]; 67.7% in [5]; 65.7% in assay [6].

On to `CCOC(=O)c1c(-c2ccc(Cl)cc2)cc(-c2ccccc2)nc1N1CCN(C)CC1`, for which the inhibition in vivo at 50 mg/kg in [1] was 53.2%; in [2] it was 55.6%; in [3], 39.6%; in [4], 65.8%; in assay [5], 67.8%; in assay [6] it was 37.8%.

Regarding `CCOC(=O)c1c(-c2ccc(Cl)cc2)cc(-c2ccccc2)nc1Nc1ccccc1`, the inhibition in vivo at 50 mg/kg in [1] was 46.5%; in [2] it was 123%; in assay [3], 73.9%; in assay [4], 62.3%; in assay [5] it was 73.7%; in assay [6], 83.8%.

`CCOC(=O)c1c(-c2ccc(Cl)cc2)cc(-c2ccccc2)nc1Nc1ccc(C)cc1`: the inhibition in vivo at 50 mg/kg in assay [1] worked out at 62.7%; in assay [2], 90.9%; in [3], 32.6%; in assay [4], 69.5%; in assay [5], 82.4%; in assay [6], 61.8%.

For the compound `CCOC(=O)c1c(-c2ccc(Cl)c(Cl)c2)cc(-c2ccccc2)nc1Nc1ccc(C)cc1`, the inhibition in vivo at 50 mg/kg in assay [1] worked out at 40.8%; in [2], 87.9%; in assay [3], 62.1%; in assay [4], 59%; in assay [5] it was 59.3%; in [6], 59.8%.

With `CCOC(=O)c1c(-c2ccc(Cl)cc2)cc(-c2ccccc2)nc1Nc1ccc(OC)cc1`, the inhibition in vivo at 50 mg/kg came to 39.6% in assay [1]; 57.2% in assay [2]; 61.1% in [3]; 33.3% in assay [4]; 68.8% in assay [5]; 38.9% in assay [6].

`CCOC(=O)c1c(-c2ccc(Cl)cc2)cc(-c2ccccc2)nc1Nc1ccc(Cl)cc1`: the inhibition in vivo at 50 mg/kg came to 32.9% in assay [1]; 95.9% in assay [2]; 40.6% in [3]; 44.6% in assay [4]; 31.2% in assay [5]; 65.2% in assay [6].

For `CCOC(=O)c1c(-c2ccc(Cl)c(Cl)c2)cc(-c2ccccc2)nc1Nc1ccc(Cl)cc1`, the inhibition in vivo at 50 mg/kg stood at 52.7% in [1]; 91.8% in assay [2]; 61.9% in assay [3]; 46.2% in assay [4]; 62.2% in assay [5]; 62.4% in assay [6].

In the case of `CCOC(=O)c1c(-c2ccc(F)cc2)cc(-c2ccccc2)nc1Nc1ccc(Cl)cc1`, the inhibition in vivo at 50 mg/kg in assay [6] was 78.4%.

For `CCOC(=O)c1c(-c2ccc(C)cc2)cc(-c2ccccc2)nc1Nc1ccc(OC)cc1`, the inhibition in vivo at 50 mg/kg in assay [6] came out at 89.4%.

As to `CCOC(=O)c1c(-c2ccc(F)cc2)cc(-c2ccccc2)nc1N1CCCCC1`, the inhibition in vivo at 50 mg/kg in assay [6] was 76%.

Turning to `CCOC(=O)c1c(-c2ccc(C)cc2)cc(-c2ccccc2)nc1N1CCCCC1`, in [6], the inhibition in vivo at 50 mg/kg worked out at 78%.

`CCOC(=O)c1c(-c2ccc(C)cc2)cc(-c2ccccc2)nc1N1CCOCC1`: in [6], the inhibition in vivo at 50 mg/kg is 73%.

Consider `CCOC(=O)c1c(-c2ccc(C)cc2)cc(-c2ccccc2)nc1Nc1ccc(Cl)cc1`, for which, in assay [6], the inhibition in vivo at 50 mg/kg was 79.4%.

With `CCOC(=O)c1c(-c2ccc(F)cc2)cc(-c2ccccc2)nc1Nc1ccccc1`, the inhibition in vivo at 50 mg/kg in assay [6] turned out to be 76%.

As for `CCOC(=O)c1c(-c2ccc(F)cc2)cc(-c2ccccc2)nc1N1CCOCC1`, in assay [6], the inhibition in vivo at 50 mg/kg is 72.7%.

With `N#Cc1c(-c2ccc(N3CCCCC3)cc2)c(C#N)c2n(Cc3ccccc3)c([S-])n[n+]2c1N`, the inhibition in vivo at 50 mg/kg in assay [6] stood at 67.4%.

Take `N#Cc1c(-c2ccc(N3CCOCC3)cc2)c(C#N)c2n(Cc3ccccc3)c([S-])n[n+]2c1N`: the inhibition in vivo at 50 mg/kg in [6] is 39.3%.

For the compound `CN1CCN(c2ccc(-c3c(C#N)c(N)[n+]4nc([S-])n(C)c4c3C#N)cc2)CC1`, the inhibition in vivo at 50 mg/kg in assay [6] came to 36.6%.

`C=CCn1c([S-])n[n+]2c(N)c(C#N)c(-c3ccc(N4CCOCC4)cc3)c(C#N)c12`: in assay [6], the inhibition in vivo at 50 mg/kg worked out at 60.6%.

For the compound `Cn1c([S-])n[n+]2c(N)c(C#N)c(-c3ccc(N4CCOCC4)cc3)c(C#N)c12`, in assay [6], the inhibition in vivo at 50 mg/kg was found to be 45.4%.

As for `Cn1c([S-])n[n+]2c(N)c(C#N)c(-c3ccc(N4CCCCC4)cc3)c(C#N)c12`, the inhibition in vivo at 50 mg/kg in [6] is 51.1%.

Take `C=CCn1c([S-])n[n+]2c(N)c(C#N)c(-c3ccc(N4CCCCC4)cc3)c(C#N)c12`: the inhibition in vivo at 50 mg/kg in assay [6] was 68.5%.

Take `COc1ccc2c(c1)c(CC(=O)O)c(C)n2C(=O)c1ccc(Cl)cc1` [INDOMETHACIN]: the inhibition in vivo at 50 mg/kg in assay [2] worked out at 100%. The inhibition in vivo at 10 mg/kg in assay [7] amounted to 64.8%; in [8], 76.9%; in [9] it was 62.8%; in [10], 68%; in assay [11], 59.9%.
